The target in experiment [1] is T1, Estrogen Receptor (ER) (Homo sapiens, UniProt P03372).
T1 construct: expressed in transfected cells
T1 sequence (P03372 1-595): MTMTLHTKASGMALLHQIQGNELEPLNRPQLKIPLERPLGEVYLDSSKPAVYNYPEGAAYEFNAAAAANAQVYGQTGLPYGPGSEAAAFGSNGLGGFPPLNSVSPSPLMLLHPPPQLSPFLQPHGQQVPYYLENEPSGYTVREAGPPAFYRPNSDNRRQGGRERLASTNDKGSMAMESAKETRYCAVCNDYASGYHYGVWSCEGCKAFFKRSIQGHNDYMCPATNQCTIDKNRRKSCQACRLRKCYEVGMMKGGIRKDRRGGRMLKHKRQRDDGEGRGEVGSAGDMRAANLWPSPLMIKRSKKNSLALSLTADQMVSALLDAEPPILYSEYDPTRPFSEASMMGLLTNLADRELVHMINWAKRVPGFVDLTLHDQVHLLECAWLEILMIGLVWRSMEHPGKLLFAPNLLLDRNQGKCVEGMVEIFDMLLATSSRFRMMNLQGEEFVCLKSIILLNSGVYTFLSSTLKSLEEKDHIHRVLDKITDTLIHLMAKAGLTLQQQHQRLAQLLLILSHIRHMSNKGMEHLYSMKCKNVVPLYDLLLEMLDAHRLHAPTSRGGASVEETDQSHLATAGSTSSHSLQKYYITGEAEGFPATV
Put plainly: htSMT of HaloTag-ER in U2OS cells (fbound, Dfree; bioactive screen and dose titration). The class given is cell-based. The note with it: for change in fbound of ER: follow-up experiments after the screen (FIG. 12B, 14A, 16), 100 nM in FIG. 14A.

The target in experiment [2] is T2, glucocorticoid receptor (GR) (Homo sapiens, UniProt P04150).
T2 construct: Because U2OS cells express GR endogenously, HaloTag was inserted right before the stop codon of endogenous NR3C1; endogenous in cells; host or cells: U2OS, CRISPR/Cas9 knock-in at the endogenous NR3C1 locus
T2 sequence (P04150 1-777): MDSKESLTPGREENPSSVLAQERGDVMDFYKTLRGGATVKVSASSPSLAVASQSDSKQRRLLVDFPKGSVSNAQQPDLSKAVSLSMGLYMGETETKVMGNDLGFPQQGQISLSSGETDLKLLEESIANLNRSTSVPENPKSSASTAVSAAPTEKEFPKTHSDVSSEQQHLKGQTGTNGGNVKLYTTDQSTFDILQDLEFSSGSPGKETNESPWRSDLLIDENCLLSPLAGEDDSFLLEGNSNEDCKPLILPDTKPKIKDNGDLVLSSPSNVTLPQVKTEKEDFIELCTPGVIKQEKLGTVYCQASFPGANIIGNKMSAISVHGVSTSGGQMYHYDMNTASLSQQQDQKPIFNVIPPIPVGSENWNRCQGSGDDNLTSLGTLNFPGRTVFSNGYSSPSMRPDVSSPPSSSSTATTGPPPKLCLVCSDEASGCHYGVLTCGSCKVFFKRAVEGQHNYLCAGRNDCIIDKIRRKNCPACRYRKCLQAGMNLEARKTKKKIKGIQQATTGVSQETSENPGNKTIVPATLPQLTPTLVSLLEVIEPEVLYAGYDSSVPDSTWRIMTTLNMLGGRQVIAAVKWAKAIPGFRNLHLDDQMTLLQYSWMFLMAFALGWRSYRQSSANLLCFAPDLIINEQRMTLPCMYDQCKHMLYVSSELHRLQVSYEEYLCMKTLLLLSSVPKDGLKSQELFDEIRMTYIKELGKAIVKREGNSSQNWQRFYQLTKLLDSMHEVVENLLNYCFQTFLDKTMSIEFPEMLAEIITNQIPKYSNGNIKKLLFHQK
Kind of experiment: htSMT of Halo-GR in U2OS cells. Particulars: 1 μM antagonist, singly or co-administered with the cognate agonist; FIG. 34D. The class given is cell-based. On the procedure: Thermo Fisher) at 500 μg/mL, then clonally isolated. […] Between three and six clones were subsequently tested using SMT conditions for response to a control compound, and the most homogenous clones were subsequently expanded for further testing. Unless otherwise specified, all experiments are with a single, clonally isolated cell line. Because U2OS cells express GR endogenously, HaloTag was inserted right before the stop codon of endogenous NR3C1 via homology-directed repair using CRISPR/Cas9. The HaloTag knock-in was validated by imaging using HTL-JF646 staining and through DNA sequencing.
Where appropriate, compounds were serially diluted in an Echo Qualified 384-Well Low Dead Volume Source Microplate (0018544, Beckman Coulter) to generate dose-titration source material.

Experiment [3] deals with androgen receptor (AR) (Homo sapiens, UniProt P10275).
Chain of androgen receptor (AR) (P10275 whole entry): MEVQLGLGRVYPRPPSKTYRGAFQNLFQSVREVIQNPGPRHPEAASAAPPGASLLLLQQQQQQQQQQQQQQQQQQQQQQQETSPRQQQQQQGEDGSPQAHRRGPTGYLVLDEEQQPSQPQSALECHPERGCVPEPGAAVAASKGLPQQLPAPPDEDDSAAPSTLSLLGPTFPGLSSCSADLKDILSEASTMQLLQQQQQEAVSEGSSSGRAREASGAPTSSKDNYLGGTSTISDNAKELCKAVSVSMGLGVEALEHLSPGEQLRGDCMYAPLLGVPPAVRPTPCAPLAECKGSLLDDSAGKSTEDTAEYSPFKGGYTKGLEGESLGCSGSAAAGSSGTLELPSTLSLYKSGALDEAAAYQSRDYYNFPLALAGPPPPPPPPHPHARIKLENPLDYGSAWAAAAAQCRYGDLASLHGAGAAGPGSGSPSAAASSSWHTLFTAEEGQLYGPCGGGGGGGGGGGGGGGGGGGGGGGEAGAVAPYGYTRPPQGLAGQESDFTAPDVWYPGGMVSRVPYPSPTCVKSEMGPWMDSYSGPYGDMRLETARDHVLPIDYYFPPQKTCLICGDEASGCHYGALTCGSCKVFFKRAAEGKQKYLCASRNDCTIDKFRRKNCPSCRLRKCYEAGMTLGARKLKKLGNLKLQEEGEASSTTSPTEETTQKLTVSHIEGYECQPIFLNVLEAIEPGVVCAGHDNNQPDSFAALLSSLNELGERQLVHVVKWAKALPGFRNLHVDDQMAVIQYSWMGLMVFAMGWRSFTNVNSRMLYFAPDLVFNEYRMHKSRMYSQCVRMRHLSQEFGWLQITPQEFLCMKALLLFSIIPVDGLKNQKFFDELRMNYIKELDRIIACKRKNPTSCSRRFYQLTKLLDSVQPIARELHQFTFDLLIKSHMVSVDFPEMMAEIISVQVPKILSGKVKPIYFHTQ
Experiment [4] addresses T3, ER (Homo sapiens, UniProt P03372).
T3 sequence (P03372 1-595): T1 sequence (P03372 1-595)
Put plainly: kinetic SMT (kSMT) of ER after compound addition. The class given is cell-based. Set-up: expressed in transfected cells. The note with it: for t½ of increase in fbound: 100 nM; for time course of the overall effect on fbound: up to four-hour window.

The target in experiment [5] is T3, ER. Put plainly: western blot of ER after fulvestrant treatment. The experiment is classed as cell-based. Set-up: host or cells: Halo-ER U2OS (transfected fusion), or MCF7 / T47d (endogenous ER). Particulars: fulvestrant 24 hours prior to lysis; MCF7, T47d, U2OS Halo-ER; FIG. 20A. (In western blotting, separated proteins are transferred to a membrane and probed.)

The target in experiment [6] is T3, ER. Kind of experiment: residence time imaging of ER (track length survival). The class given is cell-based. Set-up: expressed in transfected cells. Particulars: 100 nM HSP90 inhibition, FIG. 16E; normalized to DMSO.

Entries after “also recorded” stand apart in the source; their conditions may differ. Like-named read-outs stand apart in the source and are kept apart here.

From patent US20250314640A1, “SYSTEMS AND METHODS FOR HIGH THROUGHPUT SINGLE MOLECULE TRACKING IN LIVING CELLS” (EIKON THERAPEUTICS, INC., priority 2022, published 2025) come the findings set out here.

For the compound 4-hydroxytamoxifen, in experiment [1], the “change in fbound of ER in bioactive screen” value is “significantly increased fbound” and the “maximal increase in ER fbound” value is reported as “lower maximal increases in fbound”.
As for `CN(C)c1ccc(C(c2ccc(N(C)C)cc2)c2cc([N+](=O)[O-])ccc2Cl)cc1` [AL082D06], the “change in GR chromatin binding (fbound)” value in experiment [2] is “decrease in chromatin binding”.
With `CC(O)c1cc(C(=O)N[C@@H](C)Cn2ccc(-c3ccc(C#N)c(Cl)c3)n2)[nH]n1` (stereo partly drawn) [Darolutamide], the “change in AR chromatin binding (fbound)” value in experiment [3] is “decrease in chromatin binding”.
On to `COc1cccc(-c2cc(F)ccc2[C@H]2Cc3nc(N)nc(C)c3C(=O)N2)n1` [HSP990], for which, in experiment [1], the “change in fbound of ER” value is given as “increase in fbound”. For the same compound, in experiment [4], the “t½ of increase in fbound” value stood at 17.5 min and the “time course of the overall effect on fbound” value (shortened to “time course … on fbound”) is reported as “reached a plateau after an hour”.
Take `CC(C)C[C@H](NC(=O)[C@H](Cc1ccccc1)NC(=O)c1cnccn1)B(O)O` [bortezomib]: the “time course … on fbound” value in experiment [4] was “slowly increasing over the four-hour measurement window”.
With `CC(C)C[C@H](NC(=O)[C@H](CCc1ccccc1)NC(=O)CN1CCOCC1)C(=O)N[C@@H](Cc1ccccc1)C(=O)N[C@@H](CC(C)C)C(=O)[C@@]1(C)CO1` [carfilzomib], in experiment [4], the “time course … on fbound” value is “slowly increasing over the four-hour measurement window”.
Consider `C[C@]12CC[C@@H]3c4ccc(O)cc4C[C@@H](CCCCCCCCC[S+]([O-])CCCC(F)(F)C(F)(F)F)[C@H]3[C@@H]1CC[C@@H]2O` (stereo partly drawn) [fulvestrant], for which the “change in fbound of ER in bioactive screen” value in experiment [1] (1 μM compound versus DMSO, 5,067 molecules, two replicates) is “increase in fbound; also recorded: significantly increased fbound”. Besides, the “degradation of ER” value in experiment [5] is on record as “leads to the degradation of ER”.
On to `CC(C)c1cc(-c2n[nH]c(=O)n2-c2ccc3c(ccn3C)c2)c(O)cc1O` [ganetespib], for which the “change in fbound of ER” value in experiment [1] is given as “increase in fbound”. Also, in experiment [4], the “t½ of increase in fbound” value turned out to be 19.3 min and the “time course … on fbound” value is “reached a plateau after an hour”. The “decrease in the total number long binding events” value in experiment [6] is given as “four”.
